Results published in US20240132431A1, “METHOD FOR ALKYLATING ACIDIC FUNCTIONAL GROUP” (Chugai Seiyaku Kabushiki Kaisha, priority 2021, published 2024).

Biological target: T1, Bcl-2 protein (Recombinant Human Bcl-2 Protein) (Homo sapiens, UniProt P10415)
T1 construct: purchased Novus NBP2-34889
Experiment: Binding evaluation of mixture library compounds to Bcl-2 using AS-MS (affinity selection mass spectrometry)
Details: for ASMS ratio (%) n = 2: replicate n = 2
Procedure, shortened: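 Affinity selection MS: Bcl-2 20 μM + 1200-cpd mixture, […]/cpd, Tris pH 7.4 buffer w/ Tween-20, DTT; 1 h 23° C dark; P-2 spin SEC; MeCN/MeOH extraction; RP LC/MS. ASMS Ratio(%) = (A−C)/B×100.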

[1] = AS-MS, mixture library, Bcl-2, ASMS Ratio(%)=(A−C)/B×100

T1 sequence (P10415 whole entry): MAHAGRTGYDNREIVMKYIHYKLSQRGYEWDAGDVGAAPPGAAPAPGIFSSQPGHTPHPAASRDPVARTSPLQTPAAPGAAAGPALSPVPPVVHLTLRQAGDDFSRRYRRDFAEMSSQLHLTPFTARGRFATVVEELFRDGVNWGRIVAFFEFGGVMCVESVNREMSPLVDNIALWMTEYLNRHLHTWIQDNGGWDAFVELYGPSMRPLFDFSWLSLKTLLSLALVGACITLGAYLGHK

SMILES	ASMS ratio (%) n = 2 [1] [%]	ASMS ratio (%) n = 1 (AS-MS, mixture library, Bcl-2, replicate n = 1, ASMS Ratio(%)=(A−C)/B×100) [%]	ASMS ratio (%) (n = 1)	ASMS ratio (%) (n = 2)
CCOc1cccc(-c2ccc(C(C)N3CCN(c4ccc(C(=O)NS(=O)(=O)c5ccc(NCCSc6ccccc6)c([N+](=O)[O-])c5)cc4)CC3)c(F)c2)c1 (centres unmarked) [B2Q099-01, 4-[4-[1-[4-(3-Ethoxyphenyl)-2-fluorophenyl]ethyl]piperazin-1-yl]-N-[3-nitro-4-(2-phenylsulfanylethylamino)phenyl]sulfonylbenzamide]	0.0			
CCOc1cncc(-c2ccc(C(C)N3CCN(c4ccc(C(=O)NS(=O)(=O)c5ccc(NCCSc6ccccc6)c([N+](=O)[O-])c5)cc4)CC3)c(F)c2)c1 (centres unmarked) [B2Q100-01, 4-[4-[1-[4-(5-Ethoxypyridin-3-yl)-2-fluorophenyl]ethyl]piperazin-1-yl]-N-[3-nitro-4-(2-phenylsulfanylethylamino)phenyl]sulfonylbenzamide]	10.7	0.0		
CCOc1cncc(-c2csc(C(=O)N3CCN(c4ccc(C(=O)NS(=O)(=O)c5ccc(NCCSc6ccccc6)c(C(F)(F)F)c5)nn4)CC3)c2)c1 [B2R002-01, 6-[4-[4-(5-Ethoxypyridin-3-yl)thiophene-2-carbonyl]piperazin-1-yl]-N-[4-(2-phenylsulfanylethylamino)-3-(trifluoromethyl)phenyl]sulfonylpyridazine-3-carboxamide]			0.0	0.0
CCOc1cncc(-c2ccc(C(=O)N3CCN(c4ccc(C(=O)NS(=O)(=O)c5ccc(NCCSc6ccccc6)c(C(F)(F)F)c5)nn4)CC3)cc2C)c1 [B2R004-01, 6-[4-[4-(5-Ethoxypyridin-3-yl)-3-methylbenzoyl]piperazin-1-yl]-N-[4-(2-phenylsulfanylethylamino)-3-(trifluoromethyl)phenyl]sulfonylpyridazine-3-carboxamide]			0.0	0.0
CCOc1cncc(C#Cc2cncc(C(=O)N3CCN(c4ccc(C(=O)NS(=O)(=O)c5ccc(NCCSc6ccccc6)c(C(F)(F)F)c5)nn4)CC3)c2)c1 [B2R010-01, 6-[4-[5-[2-(5-Ethoxypyridin-3-yl)ethynyl]pyridine-3-carbonyl]piperazin-1-yl]-N-[4-(2-phenylsulfanylethylamino)-3-(trifluoromethyl)phenyl]sulfonylpyridazine-3-carboxamide]			0.0	0.0
CCOc1cncc(-c2cc(C(=O)N3CCN(c4ccc(C(=O)NS(=O)(=O)c5ccc(NCCSc6ccccc6)c(C(F)(F)F)c5)nn4)CC3)cc(C(C)(C)C)c2)c1 [B2R016-01, 6-[4-[3-tert-Butyl-5-(5-ethoxypyridin-3-yl)benzoyl]piperazin-1-yl]-N-[4-(2-phenylsulfanylethylamino)-3-(trifluoromethyl)phenyl]sulfonylpyridazine-3-carboxamide]			9.1	2.7
CCOc1cncc(-c2cc(C(=O)N3CCN(c4ccc(C(=O)NS(=O)(=O)c5ccc(NCCSc6ccccc6)c(C(F)(F)F)c5)nn4)CC3)cc(C(F)(F)F)c2)c1 [B2R018-01, 6-[4-[3-(5-Ethoxypyridin-3-yl)-5-(trifluoromethyl)benzoyl]piperazin-1-yl]-N-[4-(2-phenylsulfanylethylamino)-3-(trifluoromethyl)phenyl]sulfonylpyridazine-3-carboxamide]			5.1	7.8
CCOc1cccc(-c2cnn(-c3cc(C(=O)N4CCN(c5ccc(C(=O)NS(=O)(=O)c6ccc(NCCSc7ccccc7)c(C(F)(F)F)c6)nn5)CC4)cc(C(F)(F)F)c3)c2)c1 [B2R021-01, 6-[4-[3-[4-(3-Ethoxyphenyl)pyrazol-1-yl]-5-(trifluoromethyl)benzoyl]piperazin-1-yl]-N-[4-(2-phenylsulfanylethylamino)-3-(trifluoromethyl)phenyl]sulfonylpyridazine-3-carboxamide]			13.0	0.0
CCOc1cncc(-c2cnn(-c3cc(C(=O)N4CCN(c5ccc(C(=O)NS(=O)(=O)c6ccc(NCCSc7ccccc7)c(C(F)(F)F)c6)nn5)CC4)cc(C(F)(F)F)c3)c2)c1 [B2R022-01, 6-[4-[3-[4-(5-Ethoxypyridin-3-yl)pyrazol-1-yl]-5-(trifluoromethyl)benzoyl]piperazin-1-yl]-N-[4-(2-phenylsulfanylethylamino)-3-(trifluoromethyl)phenyl]sulfonylpyridazine-3-carboxamide]			14.5	15.8

The next lines start with the values.

ASMS ratio (%) n = 2 [1] [%]	ASMS ratio (%) n = 1 (AS-MS, mixture library, Bcl-2, replicate n = 1, ASMS Ratio(%)=(A−C)/B×100) [%]	ASMS ratio (%) (n = 1)	ASMS ratio (%) (n = 2)	SMILES
		21.6	0.0	CCOc1cccc(-c2ccc(C(=O)N3CCN(c4ccc(C(=O)NS(=O)(=O)c5ccc(NCCSc6ccccc6)c(C(F)(F)F)c5)nn4)CC3)cc2C)c1 [B2R003-01, 6-[4-[4-(3-Ethoxyphenyl)-3-methylbenzoyl]piperazin-1-yl]-N-[4-(2-phenylsulfanylethylamino)-3-(trifluoromethyl)phenyl]sulfonylpyridazine-3-carboxamide]
		44.0	39.5	CCOc1cccc(-c2ccc(C(=O)N3CCN(c4ccc(C(=O)NS(=O)(=O)c5ccc(NCCSc6ccccc6)c(C(F)(F)F)c5)nn4)CC3)cc2F)c1 [B2R005-01, 6-[4-[4-(3-ethoxyphenyl)-3-fluorobenzoyl]piperazin-1-yl]-N-[4-(2-phenylsulfanylethylamino)-3-(trifluoromethyl)phenyl]sulfonylpyridazine-3-carboxamide]
		0.0		CCOc1cccc(C#Cc2ccccc2C(=O)N2CCN(c3ccc(C(=O)NS(=O)(=O)c4ccc(NCCSc5ccccc5)c(C(F)(F)F)c4)nn3)CC2)c1 [B2R007-01, 6-[4-[2-[2-(3-Ethoxyphenyl)ethynyl]benzoyl]piperazin-1-yl]-N-[4-(2-phenylsulfanylethylamino)-3-(trifluoromethyl)phenyl]sulfonylpyridazine-3-carboxamide]
		0.0	19.5	CCOc1cncc(C#Cc2ccccc2C(=O)N2CCN(c3ccc(C(=O)NS(=O)(=O)c4ccc(NCCSc5ccccc5)c(C(F)(F)F)c4)nn3)CC2)c1 [B2R008-01, 6-[4-[2-[2-(5-Ethoxypyridin-3-yl)ethynyl]benzoyl]piperazin-1-yl]-N-[4-(2-phenylsulfanylethylamino)-3-(trifluoromethyl)phenyl]sulfonylpyridazine-3-carboxamide]
		0.0	19.5	CCOc1cccc(C#Cc2cncc(C(=O)N3CCN(c4ccc(C(=O)NS(=O)(=O)c5ccc(NCCSc6ccccc6)c(C(F)(F)F)c5)nn4)CC3)c2)c1 [B2R009-01, 6-[4-[5-[2-(3-Ethoxyphenyl)ethynyl]pyridine-3-carbonyl]piperazin-1-yl]-N-[4-(2-phenylsulfanylethylamino)-3-(trifluoromethyl)phenyl]sulfonylpyridazine-3-carboxamide]
		17.7	−1.3	CCOc1cccc(-c2ccccc2CCC(=O)N2CCN(c3ccc(C(=O)NS(=O)(=O)c4ccc(NCCSc5ccccc5)c(C(F)(F)F)c4)nn3)CC2)c1 [B2R011-01, 6-[4-[3-[2-(3-Ethoxyphenyl)phenyl]propanoyl]piperazin-1-yl]-N-[4-(2-phenylsulfanylethylamino)-3-(trifluoromethyl)phenyl]sulfonylpyridazine-3-carboxamide]
		15.8	13.5	CCOc1cncc(-c2ccccc2CCC(=O)N2CCN(c3ccc(C(=O)NS(=O)(=O)c4ccc(NCCSc5ccccc5)c(C(F)(F)F)c4)nn3)CC2)c1 [B2R012-01, 6-[4-[3-[2-(5-Ethoxypyridin-3-yl)phenyl]propanoyl]piperazin-1-yl]-N-[4-(2-phenylsulfanylethylamino)-3-(trifluoromethyl)phenyl]sulfonylpyridazine-3-carboxamide]
		7.5	7.7	CCOc1cccc(-c2ccc(C(=O)N3CCN(c4ccc(C(=O)NS(=O)(=O)c5ccc(NCCSc6ccccc6)c(C(F)(F)F)c5)nn4)CC3)c3ccccc23)c1 [B2R013-01, 6-[4-[4-(3-Ethoxyphenyl)naphthalene-1-carbonyl]piperazin-1-yl]-N-[4-(2-phenylsulfanylethylamino)-3-(trifluoromethyl)phenyl]sulfonylpyridazine-3-carboxamide]
		18.6	15.1	CCOc1cncc(-c2ccc(C(=O)N3CCN(c4ccc(C(=O)NS(=O)(=O)c5ccc(NCCSc6ccccc6)c(C(F)(F)F)c5)nn4)CC3)c3ccccc23)c1 [B2R014-01, 6-[4-[4-(5-Ethoxypyridin-3-yl)naphthalene-1-carbonyl]piperazin-1-yl]-N-[4-(2-phenylsulfanylethylamino)-3-(trifluoromethyl)phenyl]sulfonylpyridazine-3-carboxamide]
		9.7	0.0	CCOc1cccc(-c2cc(C(=O)N3CCN(c4ccc(C(=O)NS(=O)(=O)c5ccc(NCCSc6ccccc6)c(C(F)(F)F)c5)nn4)CC3)cc(C(C)(C)C)c2)c1 [B2R015-01, 6-[4-[3-tert-Butyl-5-(3-ethoxyphenyl)benzoyl]piperazin-1-yl]-N-[4-(2-phenylsulfanylethylamino)-3-(trifluoromethyl)phenyl]sulfonylpyridazine-3-carboxamide]
		32.9	27.2	CCOc1cccc(-c2cc(C(=O)N3CCN(c4ccc(C(=O)NS(=O)(=O)c5ccc(NCCSc6ccccc6)c(C(F)(F)F)c5)nn4)CC3)cc(C(F)(F)F)c2)c1 [B2R017-01, 6-[4-[3-(3-ethoxyphenyl)-5-(trifluoromethyl)benzoyl]piperazin-1-yl]-N-[4-(2-phenylsulfanylethylamino)-3-(trifluoromethyl)phenyl]sulfonylpyridazine-3-carboxamide]
